What all share (assay): Ambit kinase phage display ATP-binding-site ligand binding assay
For test [1], the target named is CSF1R (Homo sapiens, UniProt P07333). Particulars: read-out: percent inhibition of binding.
The target of test [2] is MLK1 (Homo sapiens, UniProt P80192). Particulars: read-out: percent inhibition of binding.
In test [3] the target is MAP4K5 (Homo sapiens, UniProt Q9Y4K4). Particulars: read-out: percent inhibition of binding.
Test [4] has as its target CDK5 (Homo sapiens, UniProt Q00535). Particulars: read-out: percent inhibition of binding.
Test [5] addresses TYK2(Kin.Dom.1) (Homo sapiens, UniProt P29597). The settings on record: read-out: percent inhibition of binding.
For test [6], the target named is IKK-α (Homo sapiens, UniProt O15111). Particulars: read-out: % Inhibition of binding to ATP-binding-site ligand.
Test [7] has as its target CD2 L2 (Homo sapiens, UniProt Q9UQ88). The settings on record: read-out: percent inhibition of binding.
For test [8], the target named is TXK (Homo sapiens, UniProt P42681). Particulars: read-out: percent inhibition of binding.
For test [9], the target named is TYK2 (Homo sapiens, UniProt P29597). The settings on record: read-out: % Inhibition of binding to ATP-binding-site ligand.

The text below walks through data of patent US20100152434A1, “Protein Kinase-binding Nucleosides and Associated Methods” (priority 2007, published 2010).

Chain of TYK2(Kin.Dom.1) (P29597 589-875 limits assumed): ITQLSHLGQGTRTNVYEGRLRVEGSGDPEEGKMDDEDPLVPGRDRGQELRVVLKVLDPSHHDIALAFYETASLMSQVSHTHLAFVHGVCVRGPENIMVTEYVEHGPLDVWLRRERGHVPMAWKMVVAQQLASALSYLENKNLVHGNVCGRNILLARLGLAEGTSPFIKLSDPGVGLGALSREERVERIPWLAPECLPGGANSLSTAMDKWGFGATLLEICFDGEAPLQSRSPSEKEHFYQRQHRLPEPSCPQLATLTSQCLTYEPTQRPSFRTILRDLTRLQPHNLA
Chain of IKK-α (O15111 whole entry): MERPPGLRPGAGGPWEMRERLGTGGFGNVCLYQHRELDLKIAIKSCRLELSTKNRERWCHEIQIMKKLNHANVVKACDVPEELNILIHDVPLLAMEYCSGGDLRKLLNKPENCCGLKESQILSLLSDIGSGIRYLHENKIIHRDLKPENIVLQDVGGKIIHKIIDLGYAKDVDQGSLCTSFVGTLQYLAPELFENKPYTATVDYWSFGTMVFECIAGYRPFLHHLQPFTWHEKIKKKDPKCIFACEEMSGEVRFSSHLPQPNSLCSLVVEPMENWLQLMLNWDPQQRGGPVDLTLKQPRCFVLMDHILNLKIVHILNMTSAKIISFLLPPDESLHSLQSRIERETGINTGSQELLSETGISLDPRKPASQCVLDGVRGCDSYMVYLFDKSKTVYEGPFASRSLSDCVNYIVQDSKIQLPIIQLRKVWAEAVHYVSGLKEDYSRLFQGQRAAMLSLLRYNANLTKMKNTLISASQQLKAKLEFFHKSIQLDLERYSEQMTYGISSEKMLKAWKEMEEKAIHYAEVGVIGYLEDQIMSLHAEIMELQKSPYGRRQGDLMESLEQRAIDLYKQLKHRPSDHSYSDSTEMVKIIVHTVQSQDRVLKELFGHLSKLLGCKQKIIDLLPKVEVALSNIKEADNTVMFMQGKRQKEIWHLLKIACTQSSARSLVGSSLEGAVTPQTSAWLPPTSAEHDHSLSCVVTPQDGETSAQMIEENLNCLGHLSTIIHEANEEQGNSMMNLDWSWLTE
Chain of MAP4K5 (Q9Y4K4 whole entry): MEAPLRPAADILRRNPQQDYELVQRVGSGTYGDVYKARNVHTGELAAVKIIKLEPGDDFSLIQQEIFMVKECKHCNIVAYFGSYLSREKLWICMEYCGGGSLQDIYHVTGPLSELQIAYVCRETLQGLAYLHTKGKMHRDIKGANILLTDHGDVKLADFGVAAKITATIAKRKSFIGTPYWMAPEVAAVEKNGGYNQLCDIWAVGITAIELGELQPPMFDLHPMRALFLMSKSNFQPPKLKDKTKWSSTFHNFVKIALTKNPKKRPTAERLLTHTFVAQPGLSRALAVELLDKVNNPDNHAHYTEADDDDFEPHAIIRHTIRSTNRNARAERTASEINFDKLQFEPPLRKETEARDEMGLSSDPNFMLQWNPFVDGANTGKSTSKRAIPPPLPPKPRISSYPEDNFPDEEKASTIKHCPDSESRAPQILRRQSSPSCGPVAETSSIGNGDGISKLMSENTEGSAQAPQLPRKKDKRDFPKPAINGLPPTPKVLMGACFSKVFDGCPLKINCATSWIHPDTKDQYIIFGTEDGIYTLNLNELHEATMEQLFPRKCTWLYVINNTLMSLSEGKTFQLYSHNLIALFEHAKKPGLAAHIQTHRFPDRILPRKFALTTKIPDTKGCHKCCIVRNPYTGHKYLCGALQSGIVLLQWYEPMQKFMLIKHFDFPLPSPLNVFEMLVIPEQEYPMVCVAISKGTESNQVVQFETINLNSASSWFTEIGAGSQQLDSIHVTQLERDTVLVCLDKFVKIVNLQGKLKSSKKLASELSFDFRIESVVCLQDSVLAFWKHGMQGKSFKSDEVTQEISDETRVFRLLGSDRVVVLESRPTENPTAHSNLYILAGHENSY
Chain of CD2 L2 (Q9UQ88 whole entry): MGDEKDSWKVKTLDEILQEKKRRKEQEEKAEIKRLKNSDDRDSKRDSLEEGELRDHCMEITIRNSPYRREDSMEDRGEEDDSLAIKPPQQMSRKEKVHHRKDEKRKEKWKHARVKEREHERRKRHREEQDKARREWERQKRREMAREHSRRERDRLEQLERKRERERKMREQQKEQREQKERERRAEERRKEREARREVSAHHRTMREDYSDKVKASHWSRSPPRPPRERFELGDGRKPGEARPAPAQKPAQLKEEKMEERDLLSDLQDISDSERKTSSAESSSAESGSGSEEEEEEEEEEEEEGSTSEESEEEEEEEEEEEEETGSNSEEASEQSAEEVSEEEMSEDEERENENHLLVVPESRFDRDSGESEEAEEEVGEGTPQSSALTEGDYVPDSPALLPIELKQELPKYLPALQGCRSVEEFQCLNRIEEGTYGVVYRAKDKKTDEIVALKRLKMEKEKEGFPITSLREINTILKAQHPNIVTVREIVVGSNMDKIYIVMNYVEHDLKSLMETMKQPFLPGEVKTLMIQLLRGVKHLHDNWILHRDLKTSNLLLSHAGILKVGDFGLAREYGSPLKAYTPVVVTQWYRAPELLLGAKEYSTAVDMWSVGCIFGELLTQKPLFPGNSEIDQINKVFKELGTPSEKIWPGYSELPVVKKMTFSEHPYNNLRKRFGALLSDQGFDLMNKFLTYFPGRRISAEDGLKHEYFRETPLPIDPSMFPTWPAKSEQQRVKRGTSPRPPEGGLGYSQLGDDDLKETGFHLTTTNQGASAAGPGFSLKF
Chain of CDK5 (Q00535 whole entry): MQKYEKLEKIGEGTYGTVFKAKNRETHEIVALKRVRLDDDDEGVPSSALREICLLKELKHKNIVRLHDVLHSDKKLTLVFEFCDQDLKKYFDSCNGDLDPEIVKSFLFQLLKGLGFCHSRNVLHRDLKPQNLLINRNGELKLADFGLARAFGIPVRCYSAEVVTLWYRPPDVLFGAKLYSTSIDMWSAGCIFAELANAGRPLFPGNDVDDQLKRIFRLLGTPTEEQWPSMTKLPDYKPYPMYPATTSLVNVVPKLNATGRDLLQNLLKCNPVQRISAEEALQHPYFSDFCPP
Chain of CSF1R (P07333 20-972): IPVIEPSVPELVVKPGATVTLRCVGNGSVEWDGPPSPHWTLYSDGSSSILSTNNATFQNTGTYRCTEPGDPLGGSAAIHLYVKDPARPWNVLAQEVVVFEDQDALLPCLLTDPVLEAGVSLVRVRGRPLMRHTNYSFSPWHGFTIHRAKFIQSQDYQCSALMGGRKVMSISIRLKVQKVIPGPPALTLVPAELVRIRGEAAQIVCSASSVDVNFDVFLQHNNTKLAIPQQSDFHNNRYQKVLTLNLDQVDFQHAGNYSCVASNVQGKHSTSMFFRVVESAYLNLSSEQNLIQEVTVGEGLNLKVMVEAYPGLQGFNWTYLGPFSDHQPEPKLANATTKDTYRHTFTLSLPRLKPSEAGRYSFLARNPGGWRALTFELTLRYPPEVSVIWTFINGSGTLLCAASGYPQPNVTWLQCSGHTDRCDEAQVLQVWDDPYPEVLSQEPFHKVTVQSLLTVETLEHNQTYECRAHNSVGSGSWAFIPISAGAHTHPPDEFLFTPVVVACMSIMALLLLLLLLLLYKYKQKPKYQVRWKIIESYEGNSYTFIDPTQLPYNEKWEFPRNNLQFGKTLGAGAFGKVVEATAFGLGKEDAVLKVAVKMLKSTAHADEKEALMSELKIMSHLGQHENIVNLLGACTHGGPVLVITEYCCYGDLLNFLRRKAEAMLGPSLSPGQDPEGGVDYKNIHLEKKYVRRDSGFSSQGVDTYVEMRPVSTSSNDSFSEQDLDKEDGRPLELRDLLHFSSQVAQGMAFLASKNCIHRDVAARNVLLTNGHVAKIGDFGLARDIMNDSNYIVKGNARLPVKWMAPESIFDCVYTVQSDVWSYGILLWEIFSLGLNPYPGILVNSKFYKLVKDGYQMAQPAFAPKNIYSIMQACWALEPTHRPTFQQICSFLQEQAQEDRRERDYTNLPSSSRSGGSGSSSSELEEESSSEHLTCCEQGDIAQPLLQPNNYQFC
Chain of MLK1 (P80192 whole entry): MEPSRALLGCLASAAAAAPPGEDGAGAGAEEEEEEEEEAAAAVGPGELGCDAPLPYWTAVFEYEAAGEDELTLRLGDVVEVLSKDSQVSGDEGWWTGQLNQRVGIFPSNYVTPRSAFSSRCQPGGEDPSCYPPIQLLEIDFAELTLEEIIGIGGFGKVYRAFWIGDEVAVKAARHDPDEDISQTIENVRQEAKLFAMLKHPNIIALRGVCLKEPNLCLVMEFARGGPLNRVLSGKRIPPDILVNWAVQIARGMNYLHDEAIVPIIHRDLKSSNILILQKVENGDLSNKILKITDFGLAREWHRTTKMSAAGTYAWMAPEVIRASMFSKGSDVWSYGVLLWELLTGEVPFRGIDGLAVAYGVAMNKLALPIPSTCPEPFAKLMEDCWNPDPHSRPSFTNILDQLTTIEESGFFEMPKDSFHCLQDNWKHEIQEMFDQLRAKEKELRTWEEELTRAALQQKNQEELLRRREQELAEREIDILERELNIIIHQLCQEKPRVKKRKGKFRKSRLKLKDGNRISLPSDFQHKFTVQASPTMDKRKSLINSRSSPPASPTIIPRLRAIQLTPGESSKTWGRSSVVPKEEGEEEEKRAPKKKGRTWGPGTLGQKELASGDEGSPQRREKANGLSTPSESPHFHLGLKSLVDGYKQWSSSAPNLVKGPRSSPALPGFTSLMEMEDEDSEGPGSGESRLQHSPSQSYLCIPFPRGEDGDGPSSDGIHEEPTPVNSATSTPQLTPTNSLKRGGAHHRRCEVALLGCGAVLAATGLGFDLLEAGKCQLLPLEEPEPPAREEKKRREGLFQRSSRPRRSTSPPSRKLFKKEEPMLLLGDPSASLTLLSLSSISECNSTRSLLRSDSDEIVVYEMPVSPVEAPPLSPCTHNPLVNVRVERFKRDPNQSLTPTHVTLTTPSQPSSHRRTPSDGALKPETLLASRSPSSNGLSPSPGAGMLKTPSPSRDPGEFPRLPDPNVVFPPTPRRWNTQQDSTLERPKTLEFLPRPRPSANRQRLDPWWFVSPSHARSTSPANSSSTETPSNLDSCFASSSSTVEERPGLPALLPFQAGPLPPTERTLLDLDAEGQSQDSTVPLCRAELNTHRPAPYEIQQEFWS

As to `CCOC(=O)C[C@@H]1C(O[Si](C)(C)C(C)(C)C)[C@H](n2cnc3c(NC(=O)Nc4ccccc4)ncnc32)O[C@@H]1CNC(=O)NC` (stereo partly drawn) [Compound 10], the inhibition at 10 µM in test [1] is 20 to 29%; in [2], 20 to 29%; in test [3], 20 to 29%; in [4], 20 to 29%; in test [5], 20 to 29%; in test [6] it was 37%. In addition, the values for the inhibition at 10 µM in test [7], in test [8] and in test [9] were 20 to 29%, 20 to 29% and 31%, respectively.
